Assay results as given in publication PMC12297887, “Enhanced Anticancer Potential of Pd(II)-Thiosemicarbazone Complexes: Selectivity, Mechanisms, and 3D Models” (Pharmaceutics, 2025).

How the values were obtained:
MRC5 (non-tumoral lung) = assay: Cell viability (MTT), MRC5; assay type: cell-based; conditions: 48 h of incubation, non-tumor lung fibroblast
Method: (§1) The cell lines used in the tests were A2780 (ovarian cancer), A2780cis (ovarian cisplatin resistant cancer), A549 (lung cancer), MRC5 (non-tumoral lung […]), MDA-MB-231 (triple-negative breast cancer), MCF-7 (breast cancer), SK-BR-3 (breast cancer), MCF-10A (non-tumoral breast cancer), and A375 (skin cancer—melanoma).
(§2) The MCF-10A cell line was grown in DMEM/F-12 culture medium, supplemented with 5% horse serum, human epidermal growth factor (EGF) (20 ng/mL), hydrocortisone (0.05 mg/mL), insulin (0.01 mg/mL), penicillin (1%), streptomycin (1%), and L-glutamine (2 mM). The A2780, A2780cis, and MCF-7 cell lines were cultured in RPMI-1640 medium, and the other lines in DMEM medium; both culture media were supplemented with 10% (v/v) FBS (fetal bovine serum), antibiotics, and antimycotics. Cultivation was carried out in culture flasks stored in a humid incubator at 37 °C, with an atmosphere of 5% CO2.
(§3) The plates were kept for 24 h in a humidified incubator (37 °C, 5% CO2), after which 0.75 μL of a DMSO solution (0.5% v/v) containing the compounds of interest was added to each well. The plates were then incubated for a further 48 h. The ratio of viability of cells was obtained using the MTT method. Through its reduction via the mitochondrial process, purple formazan is formed, which is proportional to cell viability. After incubating the microplates, 50 μL of a solution of MTT (1 mg∙mL^−1) in PBS was added to each well and the cells were incubated again in the oven for 4 h. Finally, the solution was removed from each well and 100 μL of isopropyl alcohol with 10% DMSO was added to solubilize the Formazan crystals. Absorbance measurements (540 nm) were then taken in each well using a BioTek EPOCH spectrophotometer (BioTek, Winooski, WT, USA). The data obtained was analyzed using Excel 360 and GraphPadPrism 8.0.2.

A549 (lung cancer) = assay: Cell viability (MTT), A549; assay type: cell-based; conditions: for IC50: 48 h of incubation, MTT; for Selectivity index (SI) A549: IC50 MRC5 / IC50 A549
Method: as §1, §2, §3

[1] = tested on: A2780cis (ovarian cisplatin resistant cancer); assay: Cell viability (MTT), A2780cis; assay type: cell-based; conditions: for IC50: 48 h of incubation, MTT; for resistance factor (RF): IC50(A2780cis)/IC50(A2780); for Selectivity index (SI) A2780cis: IC50 MRC5 / IC50 A2780cis
Method: as §1, §2, §3

[2] = tested on: MDA-MB-231 (triple-negative breast cancer); assay: Cell viability (MTT), MDA-MB-231; assay type: cell-based, human; conditions: for IC50: 48 h of incubation, MTT; for Selectivity index (SI) MDA-MB-231: IC50 MRC5 / IC50 MDA-MB-231
Method: as §1, §2, §3

SK-BR-3 (breast cancer) = assay: Cell viability (MTT), SK-BR-3; assay type: cell-based, human; conditions: for IC50: 48 h of incubation, MTT; for Selectivity index (SI) SK-BR-3: IC50 MRC5 / IC50 SK-BR-3
Method: as §1, §2, §3

MCF-7 (breast cancer) = assay: Cell viability (MTT), MCF-7; assay type: cell-based, human; conditions: for IC50: 48 h of incubation, MTT; for Selectivity index (SI) MCF-7: IC50 MRC5 / IC50 MCF-7
Method: as §1, §2, §3

A2780 (ovarian cancer) = assay: Cell viability (MTT), A2780; assay type: cell-based; conditions: for IC50: 48 h of incubation, MTT; for Selectivity index (SI) A2780: IC50 MRC5 / IC50 A2780
Method: as §1, §2, §3

[3] = Stability in DMSO by 31P{1H} NMR; assay type: physicochemical; conditions: d6-DMSO, after 48 h, no change in chemical shift
Method: The ^31P{^1H} NMR experiment was also carried out and the chemical shift values of the different complexes synthesized were similar to each other. There was a shift in the free PPh3 signal from −6.81 ppm to 30 ppm (Figure S12), indicating a reduction in the electronic density at the P of the triphenylphosphine due to coordination with Pd(II). Also, the PdB3 complex was tested for stability in DMSO.

A2780cis cells [4] = assay: Cell viability (LIVE/DEAD kit); assay type: cell-based; conditions: beginning at ½ × IC50, 48 h
Method: 1.0 × 10^4 A2780cis cells were added to each well in a 96-well plate. After 24 h, the cells were treated with different concentrations of the compound and incubated again for 48 h. Then 100 µL of the LIVE/DEAD® solution prepared as described by the manufacturer was added. The images were acquired using a fluorescence microscope (CELENA® S logos biosystems) with a 4× objective, carried out in triplicate. Live and dead cells were counted using ImageJ 1.53 software and the IC50 value was calculated using GraphPad Prism 8.0.2.

A2780cis cells [5] = assay: Cell morphology assay (DAPI / Green Plasma fluorescence); assay type: cell-based; conditions: starting at ½ × IC50, 48 h
Method: For morphological analysis by fluorescence with Green Plasma and DAPI, 1 × 10^4 cells/well of A2780cis were added to 96-well plates and incubated for 24 h. After this, the cells were treated with different concentrations of the compound and incubated for 48 h. Then the medium was removed and the cells were fixed with methanol for 5 min, and 50 μL of CellMasK Green Plasma membrane was added. After 5 min, 50 µL of DAPI was added and incubated at room temperature for a further 10 min. Images were taken using a fluorescence microscope (CELENA® S Logos Biosystems, Anyang-si, Republic of Korea) with the appropriate filters.

A2780cis cells [6] = assay: Clonogenic assay; assay type: cell-based; conditions: concentrations in relation to the IC50 of each complex, five days of treatment
Method: For this test, 600 cells of the A2780cis strain were added to each well of a six-well microplate. After incubating for 24 h in a 5% CO2 atmosphere, different concentrations of the compounds were added to the wells and incubated again for five days. After this period, the culture medium was changed and the plates were incubated for a further five days. Finally, the culture medium was removed and washed with PBS. Subsequently, a solution of methanol and acetic acid (3:1 v/v) was added for five minutes, and then the cells were stained with methyl violet solution. The plates were washed with distilled water. After drying, they were photographed using the iBright™ FL1500 (ThermoFisher, Waltham, MA, USA) and analyzed using ImageJ 1.53 software.

[7] = tested on: A375 (skin cancer, melanoma); assay: Cell viability (MTT), A375; assay type: cell-based; conditions: 48 h of incubation
Method: as §1, §2, §3

A2780cis cells [8] = assay: Apoptosis assay (PE-Annexin V/7AAD, flow cytometry); assay type: cell-based; conditions: ½ × IC50, 24 h; control 86.4%
Method: Apoptosis in A2780cis cells induced by the complexes was analyzed by flow cytometry; a PE-Annexin-V Apoptosis Detection kit (BD Biosciences) was employed. The cells (1 × 10^5 cells/well) were seeded in a 24-well plate. After incubation for 24 h, the cells were exposed to increasing concentrations of complex PdB1 for 24 h. After treatment, the cells were collected, centrifuged at 2000 rpm and 4 °C for 5 min, washed with ice-cold PBS, and resuspended in 150 µL of binding buffer. PE-Annexin V (2.5 µL) and 7ADD (2.5 µL) were added, which was followed by incubation in the dark at room temperature for 20 min. Then, the cells were centrifuged at 2000 rpm and 4 °C for 5 min, resuspended in 400 µL of binding buffer, and analyzed on an Accuri C6 (BD Biosciences) flow cytometer; 10,000 events were recorded. Fluorescence was quantified in triplicate with the Cell Quest software (BD Biosciences). Untreated cells were the negative control.

A2780cis spheroids = assay: Three-dimensional (spheroid) assay; assay type: cell-based; conditions: for cell death within spheroids (DAPI/PI staining): 48 h; for spheroid morphology (brightfield): 48 h of treatment
Method: The 3D culture assay was performed with the A2780cis cell line using the Greiner Bio-One 96-well magnetic bioprinting kit. In total, 150 µL of magnetic nanoparticles were added to the cells grown in a 25 cm^2 bottle and incubated for 24 h. Then, 3750 cells/well were added to repellent 96-well plates, taken to the magnetic drive, and incubated for 4 days for the formation of […]. Once the spheroids had been obtained, they were treated with the compound PdB1 at different concentrations. Finally, images of the spheroids were recorded at 0 and 48 h, and images with fluorescence markers (DAPI and PI) were also obtained for the 48 h period using a logos biosystems CELENA® S fluorescence microscope.

[9] = tested on: MCF-10A (non-tumoral breast); assay: Cell viability (MTT), MCF-10A; assay type: cell-based, human; conditions: 48 h of incubation, non-tumorigenic breast line, read-out: IC50 MFC-10A
Method: as §1, §2, §3

Compound | IC50 (MRC5 (non-tumoral lung)) [µM] | IC50 (A549 (lung cancer)) [µM] | IC50 [1] [µM] | IC50 [2] [µM] | IC50 (SK-BR-3 (breast cancer)) [µM] | IC50 (MCF-7 (breast cancer)) [µM] | IC50 (A2780 (ovarian cancer)) [µM] | resistance factor (RF) [1] | Selectivity index (SI) MCF-7 (MCF-7 (breast cancer)) | Selectivity index (SI) A549 (A549 (lung cancer)) | Selectivity index (SI) A2780 (A2780 (ovarian cancer)) | Selectivity index (SI) A2780cis [1] | Selectivity index (SI) MDA-MB-231 [2] | Selectivity index (SI) SK-BR-3 (SK-BR-3 (breast cancer)) | IC50 [7] [µM] | IC50 [9] [µM] | further results
CC#N.CC#N.[Cl][Pd][Cl] [[PdCl2(MeCN)2], reference compound] | > 50 | > 50 | > 50 | > 50 | – | – | – | – | – | – | – | – | – | – | – | – | –
CNC1=[S+][Pd-]([Cl])([PH](c2ccccc2)(c2ccccc2)c2ccccc2)[N+](=C(/C=C/c2ccccc2)c2ccccc2)N1.[Cl-] [PdC2, [PdCl(L-C2)(PPh3)]Cl] | > 50 | > 50 | 1.66 ± 0.01 | 9.66 ± 0.4 | > 50 | > 50 | 3.93 ± 0.2 | 0.42 | – | – | – | – | – | – | – | – | –
CCNC1=[S+][Pd-]([Cl])([PH](c2ccccc2)(c2ccccc2)c2ccccc2)[N+](=C(C)/C=C/c2ccccc2)N1.[Cl-] [PdB3, [PdCl(L-B3)(PPh3)]Cl] | 9.28 ± 0.3 | 13 ± 1 | 0.26 ± 0.01 | 1.04 ± 0.06 | < 2 | 0.91 ± 0.008 | 0.23 ± 0.01 | 1.13 | 10.2 | 0.7 | 40.3 | 35.7 | 8.9 | – | – | – | stability in DMSO [3]: remained stable
CC(/C=C/c1ccccc1)=[N+]1NC(N)=[S+][Pd-]1([Cl])[PH](c1ccccc1)(c1ccccc1)c1ccccc1.[Cl-] [PdB1, [PdCl(L-B1)(PPh3)]Cl] | 1.7 ± 0.2 | 44.8 ± 2 | 0.2 ± 0.01 | 1.45 ± 0.1 | 1.42 ± 0.07 | 3.79 ± 0.4 | 0.12 ± 0.01 | 1.66 | 0.4 | – | 14.2 | 8.5 | 1.2 | 1.2 | 1.34 ± 0.08 | 1.58 ± 0.07 | LIVE/DEAD viability (A2780cis cells [4]): marked increase in red-fluorescing (non-viable) cells; nuclear morphology (DAPI staining) (A2780cis cells [5]): chromatin condensation and nuclear fragmentation; colony formation (A2780cis cells [6]): significantly reduced colony formation; Q2-LL (viable cells, Q3 in the text) (A2780cis cells [8]): 37.1%; cell death within spheroids (DAPI/PI staining) (A2780cis spheroids; 12.5 µM): significant level of cell death; cell death within spheroids (DAPI/PI staining) (A2780cis spheroids; 25 µM): complete disintegration; spheroid morphology (brightfield) (A2780cis spheroids; 25 µM): marked reduction in compaction and cohesion; spheroid morphology (brightfield) (A2780cis spheroids; lower concentrations): continued spheroid growth
N.N.[Cl][Pt][Cl] [Cisplatin, reference compound] | 21.6 ± 0.8 | 13 ± 0.4 | 25.1 ± 0.9 | 33.14 ± 0.3 | 5.86 ± 0.2 | 8.64 ± 0.8 | 14.24 ± 0.05 | 1.76 | 2.5 | 1.7 | 1.5 | 0.9 | 0.7 | 3.7 | 12.2 ± 0.62 | 23.9 ± 0.7 | –
CCNC1=[S+][Pd-]([Cl])([PH](c2ccccc2)(c2ccccc2)c2ccccc2)[N+](=C(/C=C/c2ccccc2)c2ccccc2)N1.[Cl-] [PdC3, [PdCl(L-C3)(PPh3)]Cl] | > 50 | > 50 | 11.1 ± 0.6 | > 50 | > 50 | > 50 | 22.8 ± 1 | 0.48 | – | – | – | – | – | – | – | – | –
CNC(NN=C(C)C=Cc1ccccc1)=[S][Pd]([Cl])[P](c1ccccc1)(c1ccccc1)c1ccccc1.[Cl-] [PdB2] | 6.85 ± 0.3 | 30.4 ± 0.4 | 0.21 ± 0.01 | 0.92 ± 0.08 | 1.48 ± 0.06 | 1.47 ± 0.2 | 0.13 ± 0.01 | 1.62 | 4.7 | 0.2 | 52.7 | 32.6 | 7.4 | 4.6 | – | – | –
NC1=[S+][Pd-]([Cl])([PH](c2ccccc2)(c2ccccc2)c2ccccc2)[N+](=C(/C=C/c2ccccc2)c2ccccc2)N1.[Cl-] [PdC1, [PdCl(L-C1)(PPh3)]Cl] | 46.8 ± 2 | > 50 | 0.62 ± 0.01 | 5.97 ± 0.1 | 2.25 ± 0.3 | 17.7 ± 1 | 0.4 ± 0.01 | 1.55 | 2.6 | – | 116.9 | 75.4 | 7.8 | 20.8 | > 50 | 2.64 ± 0.06 | colony formation (A2780cis cells [6]): reduced colony formation
